Data from patent US10851082B2, “Substituted aromatic n-heterocyclic compounds as inhibitors of mitogen-activated protein kinase interacting kinase 1 (MNK1) and 2 (MNK2)” (Northwestern University, priority 2015, dated 2020).
Read-outs that look alike come from different tables or passages of the source.

Tests used:
[1] = molecular target: Mnk2 (Homo sapiens (Human), UniProt Q9HBH9); test: Mnk2 kinase inhibition, ADP-Glo ADP monitoring assay; format: biochemical
Method: (§1) The synthesized compounds then were tested for inhibition of the kinase activity (IC50) of Mnk1 and/or Mnk2 using the ADP monitoring assay for kinases described in Zegzouti, H.; Zdanovskaia, M.; Hsiao, K.; Goueli, S. A., ADP-Glo: A Bioluminescent and homogeneous ADP monitoring assay for kinases.

[2] = molecular target: Mnk1 (Homo sapiens (Human), UniProt Q9BUB5); test: Mnk1 kinase inhibition, ADP-Glo ADP monitoring assay; format: biochemical
Chain of Mnk1 (Q9BUB5 whole entry): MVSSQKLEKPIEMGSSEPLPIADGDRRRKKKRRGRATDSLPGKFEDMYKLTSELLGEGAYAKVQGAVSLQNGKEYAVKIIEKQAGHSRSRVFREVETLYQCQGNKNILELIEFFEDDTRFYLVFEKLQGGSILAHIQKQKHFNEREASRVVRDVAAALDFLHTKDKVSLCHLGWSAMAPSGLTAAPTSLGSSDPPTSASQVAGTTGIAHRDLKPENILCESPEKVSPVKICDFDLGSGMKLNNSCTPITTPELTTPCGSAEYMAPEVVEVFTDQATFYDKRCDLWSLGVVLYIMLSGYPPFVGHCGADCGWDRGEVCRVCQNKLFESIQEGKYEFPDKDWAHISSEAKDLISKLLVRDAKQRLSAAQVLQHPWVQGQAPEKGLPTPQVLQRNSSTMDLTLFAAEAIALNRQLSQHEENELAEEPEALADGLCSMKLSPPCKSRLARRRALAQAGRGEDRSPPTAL
Method: as §1

[3] = ADP-Glo kinase assay, read-out: Mnk2 inhibition IC50 (+,++,+++)
[4] = read-out: Mnk1 inhibition IC50 (+,++,+++)
[5] = ADP-Glo kinase assay, read-out: Mnk2 IC50
[6] = ADP-Glo kinase assay, unit inferred, read-out: Mnk2 IC50
[7] = unit inferred, read-out: Mnk1 IC50

Chain of Mnk2 (Q9HBH9 whole entry): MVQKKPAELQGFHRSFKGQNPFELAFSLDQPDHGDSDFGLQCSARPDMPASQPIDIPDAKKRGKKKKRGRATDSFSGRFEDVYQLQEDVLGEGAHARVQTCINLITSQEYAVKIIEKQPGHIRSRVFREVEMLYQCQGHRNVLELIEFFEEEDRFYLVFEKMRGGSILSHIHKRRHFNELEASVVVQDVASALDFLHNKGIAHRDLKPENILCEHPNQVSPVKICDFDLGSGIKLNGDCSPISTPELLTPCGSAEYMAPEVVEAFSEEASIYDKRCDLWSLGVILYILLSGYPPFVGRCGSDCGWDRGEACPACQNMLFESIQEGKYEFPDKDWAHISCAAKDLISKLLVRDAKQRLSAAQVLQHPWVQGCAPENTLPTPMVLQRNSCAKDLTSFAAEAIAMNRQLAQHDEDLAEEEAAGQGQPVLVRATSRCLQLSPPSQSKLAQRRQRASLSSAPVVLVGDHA

SMILES: Clc1cnc(OCCC2CCNCC2)nc1-n1cnc2ccccc21 [NUCC-0201002]
- IC50 [1, 3]: < 1000 nM
- IC50 [2, 4]: < 1000 nM

SMILES: O=C1CCCN1CCCNc1nccc(-n2cnc3ccccc32)n1 [NUCC-0176344]
- IC50 [1, 5]: 780 nM
- IC50 ([2]; read-out: Mnk1 IC50): 7200 nM

SMILES: N#Cc1cnc(OCCc2cccnc2)nc1-n1cnc2ccccc21 [NUCC-0201005]
- IC50 [1]: 1000 to 10000 nM
- IC50 [2, 4]: 1000 to 10000 nM

SMILES: NC(=O)c1ccc(-c2cnc(OC3CCNC3)nc2-n2cnc3ccccc32)cc1 (stereo not shown) [NUCC-0201903]
- IC50 [1, 3]: < 1000 nM
- IC50 [2, 4]: < 1000 nM

SMILES: c1ccc2c(c1)c1ccccc1n2-c1ccnc(NCCc2ccncc2)n1 [NUCC-0176339]
- IC50 [1, 5]: 10000 nM
- IC50 ([2]; read-out: Mnk1 IC50): 11000 nM

SMILES: O[C@H](c1ccccc1)[C@@H](Nc1ccnc(-n2cnc3ccccc32)n1)c1ccccc1 [NUCC-0196259]
- IC50 [1, 6]: 320 nM
- IC50 [2, 7]: 5600 nM

SMILES: NC1CC(Oc2ncc(C(F)(F)F)c(-n3cnc4ccccc43)n2)C1 (stereo not shown) [NUCC-0201663]
- IC50 [1]: 1000 to 10000 nM
- IC50 [2, 4]: < 1000 nM

SMILES: c1ccc2c(c1)OCCN2c1ccnc(NCCc2ccncc2)n1 [NUCC-0176230]
- IC50 [1, 5]: 3500 nM
- IC50 ([2]; read-out: Mnk1 IC50): 5100 nM

SMILES: O=C(O)c1cc(-n2cnc3ccccc32)nc(NCCc2ccncc2)n1 [NUCC-0196239]
- IC50 [1, 6]: 6900 nM
- IC50 [2, 7]: > 10000 nM

SMILES: c1ccc(C2CC2Nc2nccc(-n3cnc4ccccc43)n2)cc1 (stereo not shown) [NUCC-0196255]
- IC50 [1, 6]: 920 nM
- IC50 [2, 7]: > 10000 nM

SMILES: Fc1ccc(CCNc2ncc(Cl)c(-n3cnc4ccccc43)n2)cc1 [NUCC-0200783]
- IC50 [1, 3]: < 1000 nM
- IC50 [2, 4]: > 10000 nM

SMILES: CC1=C(Oc2ncc(Cl)c(-n3cnc4ccccc43)n2)C(=O)C(C)O1 (stereo not shown) [NUCC-0201018]
- IC50 [1]: 1000 to 10000 nM
- IC50 [2, 4]: 1000 to 10000 nM

SMILES: FC(F)(F)c1cc(Cl)c2ncn(-c3nc(OCCc4ccccn4)ncc3Cl)c2c1 [NUCC-0201020]
- IC50 [1]: 1000 to 10000 nM
- IC50 [2, 4]: 1000 to 10000 nM

SMILES: OC1CCC(Nc2nccc(-n3cnc4ccccc43)n2)CC1 (stereo not shown) [NUCC-0176145]
- IC50 [1, 5]: 52 nM
- IC50 ([2]; read-out: Mnk1 IC50): 400 nM

SMILES: Brc1cnc(NCCc2ccncc2)nc1-n1cnc2ccccc21 [NUCC-0196228]
- IC50 [1, 6]: 69 nM
- IC50 [2, 7]: 550 nM

SMILES: Clc1cc(Cl)nc(CCOc2ncc(Cl)c(-n3cnc4ccccc43)n2)c1 [NUCC-0201022]
- IC50 [1]: 1000 to 10000 nM
- IC50 [2, 4]: 1000 to 10000 nM

SMILES: NC1CC(Oc2ncc(C3CC3)c(-n3cnc4ccccc43)n2)C1 (stereo not shown) [NUCC-0201900]
- IC50 [1, 3]: < 1000 nM
- IC50 [2, 4]: < 1000 nM

SMILES: NC1CC(Oc2ncc(Cl)c(-n3cnc(-c4ccc(Cl)c(C(F)(F)F)c4)c3)n2)C1 (stereo not shown) [NUCC-0201247, 3-((5-chloro-4-(4-(4-chloro-3-(trifluoromethyl)phenyl)-1H-imidazol-1-yl)pyrimidin-2-yl)oxy)cyclobutanamine]
- IC50 [1]: 1000 to 10000 nM
- IC50 [2, 4]: 1000 to 10000 nM

SMILES: COCCNc1nccc(-n2cnc3ccccc32)n1 [NUCC-0176342]
- IC50 [1, 5]: 200 nM
- IC50 ([2]; read-out: Mnk1 IC50): 1600 nM

SMILES: N#Cc1cnc(OC2CCCOC2)nc1-n1cnc2ccccc21 (stereo not shown) [NUCC-0200795]
- IC50 [1]: 1000 to 10000 nM
- IC50 [2, 4]: > 10000 nM

SMILES: N#Cc1cnc(NCCc2ccncc2)nc1-n1nnc2ccccc21 [NUCC-0200802]
- IC50 [1, 3]: > 10000 nM
- IC50 [2, 4]: > 10000 nM

SMILES: NC1CC(Oc2ncc(Cl)c(-n3cnc4ccccc43)n2)C1 (stereo not shown) [NUCC-0201004]
- IC50 [1, 3]: < 1000 nM
- IC50 [2, 4]: < 1000 nM

SMILES: Nc1cnc(NCCc2ccncc2)nc1-n1cnc2ccccc21 [NUCC-0196231]
- IC50 [1, 6]: > 10000 nM
- IC50 [2, 7]: > 10000 nM

SMILES: O=[N+]([O-])c1ccc(NCCNc2nccc(-n3cnc4ccccc43)n2)nc1 [NUCC-0176365]
- IC50 [1, 5]: 2100 nM
- IC50 ([2]; read-out: Mnk1 IC50): 7400 nM

SMILES: Clc1cnc(NCCCc2ccncc2)nc1-n1cnc2ccccc21 [NUCC-0200912]
- IC50 [1]: 1000 to 10000 nM
- IC50 [2, 4]: > 10000 nM

SMILES: COc1cccc(-n2cc(-c3ccnc(NCCc4c[nH]cn4)n3)cn2)c1 [NUCC-0054133]
- IC50 [1, 5]: 1800 nM
- IC50 ([2]; read-out: Mnk1 IC50): 7000 nM

SMILES: c1ccc2c(c1)ncn2-c1ccnc(NC2COC2)n1 [NUCC-0176150]
- IC50 [1, 5]: 90 nM
- IC50 ([2]; read-out: Mnk1 IC50): 420 nM

SMILES: c1ccc2c(c1)ncn2-c1ccnc(Nc2ccc(-n3cccn3)cc2)n1 [NUCC-0125593]
- IC50 [1, 5]: 39 nM
- IC50 ([2]; read-out: Mnk1 IC50): 650 nM

SMILES: c1ccc2c(c1)cnn2-c1nccc(NCCc2ccncc2)n1 [NUCC-0176347]
- IC50 [1, 5]: 5600 nM
- IC50 ([2]; read-out: Mnk1 IC50): 8100 nM

SMILES: N#Cc1cnc(NCCc2ccncc2)nc1-n1ccnc1 [NUCC-0196308]
- IC50 [1, 6]: 6900 nM
- IC50 [2, 7]: 2100 nM

SMILES: O=C1CCN(c2ncc(Cl)c(-n3cnc4ccccc43)n2)C1 [NUCC-0201051]
- IC50 [1]: 1000 to 10000 nM
- IC50 [2, 4]: 1000 to 10000 nM

SMILES: S=c1oc2ccccc2n1-c1ccnc(NCCc2ccncc2)n1 [NUCC-0176354]
- IC50 [1, 5]: 4900 nM
- IC50 ([2]; read-out: Mnk1 IC50): 10000 nM

SMILES: c1ccc2c(c1)ncn2-c1ccnc(OC2CCNC2)n1 (stereo not shown) [NUCC-0201896]
- IC50 [1, 3]: < 1000 nM
- IC50 [2, 4]: < 1000 nM

SMILES: N[C@H]1C[C@@H](Oc2ncc(Cl)c(-n3cnc4ccccc43)n2)C1 [NUCC-0201047]
- IC50 [1, 3]: < 1000 nM
- IC50 [2, 4]: < 1000 nM

SMILES: N#Cc1cnc(OC2CCc3cccnc32)nc1-n1cnc2ccccc21 (stereo not shown) [NUCC-0200905]
- IC50 [1]: 1000 to 10000 nM
- IC50 [2, 4]: > 10000 nM

SMILES: OC1CC(Nc2ncc(Cl)c(-n3cnc4ccccc43)n2)C1 (stereo not shown) [NUCC-0201003]
- IC50 [1]: 1000 to 10000 nM
- IC50 [2, 4]: 1000 to 10000 nM

SMILES: c1cc(NCCc2ccncc2)nc(-n2cnc3ccccc32)c1 [NUCC-0196235]
- IC50 [1, 6]: 10 nM
- IC50 [2, 7]: 100 nM

SMILES: Clc1cnc(NCCc2ccncc2)nc1-n1ccc2c(Cl)ncnc21 [NUCC-0200911]
- IC50 [1, 3]: > 10000 nM
- IC50 [2, 4]: > 10000 nM

SMILES: FC(F)(F)c1cnc(NC23CC(C2)C3)nc1-n1cnc2ccccc21 [NUCC-0201888]
- IC50 [1, 3]: < 1000 nM
- IC50 [2, 4]: < 1000 nM

SMILES: O=C1CC(Nc2ncc(C(F)(F)F)c(-n3cnc4ccccc43)n2)CN1 (stereo not shown) [NUCC-0201890]
- IC50 [1, 3]: < 1000 nM
- IC50 [2, 4]: < 1000 nM

SMILES: N#Cc1cnc(NCCc2ccncc2)nc1-n1cncn1 [NUCC-0196250]
- IC50 [1, 6]: > 10000 nM
- IC50 [2, 7]: > 10000 nM

SMILES: Clc1cnc(NCc2cccnc2)nc1-n1cnc2ccccc21 [NUCC-0176360]
- IC50 [1, 5]: 1000 nM
- IC50 ([2]; read-out: Mnk1 IC50): 4500 nM

SMILES: O[C@H](c1ccccc1)[C@@H](Nc1nccc(-n2cnc3ccccc32)n1)c1ccccc1 [NUCC-0196257]
- IC50 [1, 6]: 310 nM
- IC50 [2, 7]: 1300 nM

SMILES: N#Cc1cnc(NCCc2ccncc2)nc1-n1cnc(-c2ccccc2)c1 [NUCC-0196264]
- IC50 [1, 6]: 57 nM
- IC50 [2, 7]: 96 nM

SMILES: c1ccc2c(c1)ncn2-c1nccc(NCCc2c[nH]c3ccccc23)n1 [NUCC-0196261]
- IC50 [1, 6]: 110 nM
- IC50 [2, 7]: 920 nM

SMILES: Clc1cnc(Oc2cccnc2)nc1-n1cnc2ccccc21 [NUCC-0200810, 1-(5-chloro-2-(pyridin-3-yloxy)pyrimidin-4-yl)-1H-benzo[d]imidazole]
- Mnk2 inhibition IC50 (+,++,+++) ([1]; ADP-Glo kinase assay): no activity
- Mnk1 inhibition IC50 (+,++,+++) [2]: no activity

SMILES: Fc1cnc(NCCc2ccncc2)nc1-n1ccc2ccccc21 [NUCC-0176283]
- IC50 [1, 5]: 10000 nM
- IC50 ([2]; read-out: Mnk1 IC50): 8700 nM

SMILES: CCNC(=O)Nc1nccc(-n2cnc3ccccc32)n1 [NUCC-0196222]
- IC50 [1, 6]: 2200 nM
- IC50 [2, 7]: > 10000 nM

SMILES: NC(=O)CNc1ncc(Cl)c(-n2cnc3ccccc32)n1 [NUCC-0176359]
- IC50 [1, 5]: 320 nM
- IC50 ([2]; read-out: Mnk1 IC50): 1500 nM

SMILES: CCc1nc(OC2CC(N)C2)nc(-n2cnc3ccccc32)c1Cl (stereo not shown) [NUCC-0201916]
- IC50 [1]: 1000 to 10000 nM
- IC50 [2, 4]: 1000 to 10000 nM

SMILES: N#Cc1cnc(-n2cnc3ccccc32)nc1OCCc1ccnc(F)c1 [NUCC-0201907]
- IC50 [1, 3]: < 1000 nM
- IC50 [2, 4]: < 1000 nM

SMILES: O=C(NC1CC1)c1cc(-n2cnc3ccccc32)nc(NCCc2ccncc2)n1 [NUCC-0196234]
- IC50 [1, 6]: 5400 nM
- IC50 [2, 7]: > 10000 nM

SMILES: CCOC(=O)c1cnc(NCCc2ccncc2)nc1-n1cnc2ccccc21 [NUCC-0196310]
- IC50 [1, 6]: 5400 nM
- IC50 [2, 7]: 2100 nM

SMILES: O=C(Nc1cc(C(F)(F)F)cc(C(F)(F)F)c1)Nc1nccc(-n2cnc3ccccc32)n1 [NUCC-0176362]
- Mnk2 IC50 ([1]; ADP-Glo kinase assay): no activity
- Mnk1 IC50 [2]: no activity

SMILES: c1ccc2c(c1)ncn2-c1nc(OC2CCNC2)ncc1-c1ccsc1 (stereo not shown) [NUCC-0201902]
- IC50 [1, 3]: < 1000 nM
- IC50 [2, 4]: < 1000 nM

SMILES: CC(C)(COc1nc(-n2cnc3ccccc32)ncc1C#N)c1ccnc(F)c1 [NUCC-0201908]
- IC50 [1]: 1000 to 10000 nM
- IC50 [2, 4]: 1000 to 10000 nM

SMILES: N#Cc1cnc(Oc2ccc(Cl)cc2)nc1-n1cnc2ccccc21 [NUCC-0200787]
- IC50 [1, 3]: < 1000 nM
- IC50 [2, 4]: < 1000 nM

SMILES: CC(C)(COc1ncc(Cl)c(-n2cnc3ccccc32)n1)c1ccncc1 [NUCC-0201593, 1-(5-chloro-2-(2-methyl-2-(pyridin-4-yl)propoxy)pyrimidin-4-yl)-1H-benzo[d]imidazole]
- IC50 [1, 3]: < 1000 nM
- IC50 [2, 4]: 1000 to 10000 nM

SMILES: c1cnc2ncn(-c3ccnc(NC4CCOC4)n3)c2c1 (stereo not shown) [NUCC-0176142]
- IC50 [1, 5]: 5300 nM
- IC50 ([2]; read-out: Mnk1 IC50): 13000 nM
